From patent US20220002288A1, “MONOBACTAM COMPOUNDS AND USE THEREFOR” (priority 2018, published 2022)
In brackets after ≈: the same amount, converted by molar mass. Where a name gives a salt, the structure may show the parent alone. Read-outs that look alike come from different tables or passages of the source.

Assays:
[1] = Pharmacokinetics of the compounds in mice; format: in vivo, BALB/c mice; conditions: mouse, plasma, male BALB/c mice, single intravenous dose 2 mg/kg, plasma; for Vd: male, BALB/c, iv, 2 mg/kg
From the text: Animals: male BALB/c mice, SPF grade, purchased from Changzhou Cavens Experimental Animal Co., Ltd.; 16-24 g, license number: SCXK (Su)2016-0010; 2 to 3 days of adaptation period were given before the experiment.
Instruments: API 4500 High Performance Liquid Chromatograph Coupled Triple Quadrupole Mass Spectrometer, and Analyst QS A01.01 Chromatography Workstation were both purchased from AB SCIEX of the United States; Milli-Q ultrapure water device was purchased from Millipore; CF16R XII desktop high-speed refrigerated centrifuge was purchased From Hitachi Company; Qilinbeier Vortex-5 oscillator was purchased from IKA Company of German; electric heating constant-temperature water bath was purchased from Changzhou Guohua Electric Appliance Co., Ltd.; electric pipette was purchased from Thermo Company of American; and microanalysis balance was purchased from Shanghai Mettler Co., Ltd.
2 mg of the test compound was weighed, added to physiological saline, vortexed for 2 min, and ultrasonicated for 3 min, to prepare a test solution with a concentration of 0.2 mg/mL for intravenous administration.
A single dose of 2 mg/kg of the test compound was administered to BALB/c mice via the tail vein, the dose volume being 0.1 mL/10 g. At 5 min, 15 min, 30 min, 1 h, 2 h, 4 h after administration, blood samples were collected from the orbital venous plexus into heparinized EP tubes (0.6 mL), which were temporarily placed on crushed ice.
The samples were centrifuged at 8000 rpm for 5 min. 15 μL of upper plasma were transferred to a 96-well plate. 150 μL of methanol:acetonitrile (v/v=1:1) (containing 20 ng/mL tolbutamide) was added to 15 μL of plasma, shaken for 3 min, and centrifuged at 4500 rpm for 5 min. 100 μL of supernatant was taken to a 2 mL deep well plate. 100 μL of diluent (pure water) was added. The samples were shaken for 3 min, and centrifuged at 4500 rpm for 5 min. 180 μL of the supernatant was transferred to the sample plate. The content of the compound in the supernatant sample was analyzed by LC-MS/MS, and various pharmacokinetic parameters were calculated with WinNonlin software.

Acinetobacter baumannii = experiment: In vitro antibacterial activity, minimum inhibitory concentration (MIC); format: cell-based
Protocol: (§1) Compounds: The compounds prepared in the above examples and comparative examples. All test compounds were dissolved and diluted with DMSO, and the final concentrations were prepared as 64, 32, 16, 8, 4, 2, 1, 0.5, 0.25, 0.125, 0.0625 μg/mL in the experiment.
(§2) Bacterial strains: 6 strains of Acinetobacter baumannii (codenames: HDBAB-YK4, HDBAB-YK7, HDBAB-YK12, HDBAB-YK16, HDBAB_OXA_7, ATCC 19606), 2 strains of Pseudomonas aeruginosa (codenames: HDBPA-YK9, HDBPA)-YK15), 1 strain of Escherichia coli (codename: CLB30048), all provided by HD Biosciences (Shanghai) Co., Ltd.
(§3) Medium: Trypticase soy agar (TSA) (BD BBL 211043), and Cation-adjusted Mueller Hinton broth (CAMHB) (BD BBL212322).
(§4) The bacteria used for the minimum inhibitory concentration (MIC) test were stored frozen at −80° C., and needed 2 days to recover before use. A small amount of frozen bacteria was scraped with a sterile inoculation loop for streak inoculation on a TSA solid medium petri dish. The dish was placed in an ordinary incubator at 35±2° C. for 20-24 hours. 5-10 Colonies with similar morphologies were picked from the above-mentioned petri dish with a sterile inoculating loop for streak inoculation again on a TSA solid medium petri dish. The dish was then placed in an ordinary incubator at 35±2° C. for 20-24 hours.
(§5) 1.02×CAMHB liquid medium was taken out from a 4° C. refrigerator and placed at room temperature for preheating. 5-10 Individual bacterial colonies were picked from the solid petri dish of the above Section 2.1 and re-suspended in 500 μL of 0.9% NaCl, and then the OD600 was adjusted to 0.1-0.15 with a spectrophotometer. Then the bacteria were diluted 400 times with 1.02×CAMHB (two-step dilution method: firstly diluting 10 times, then diluting 40 times).
(§6) The number of inoculated bacteria can be obtained by counting the colonies on the petri dish (see Section 2.4).
(§7) One compound was arranged in each row of a 96-well test plate: the highest test concentration for each compound was 64 μg/mL, which was diluted by a factor of two.
(§8) Growth control (GC): 1.02×CAMHB and dimethyl sulfoxide (DMSO) containing bacterial inoculum, no compound.
(§9) Sterile control (SC): Containing 1.02×CAMHB and DMSO, no compound.
(§10) All test compounds were dissolved and diluted with DMSO. 50 μL of 3.2 mg/mL of each test compound was transferred to the initial well (A1-H1) of the dilution plate, and then 25 μL of DMSO was transferred to other wells. The test compounds were sequentially diluted by a factor of 2 from column 1 to column 11 (i.e. drawing 25 μL of test compound from column 1 to column 2 and mixing well, and then drawing 25 μL of test compound from column 2 to column 3 and mixing well, and then drawing 25 μL of test compound from column 3 to column 4 and mixing well, and so on, until diluting to column 11).
(§11) 2 μL of the compound was transferred from the compound plate to the corresponding well of the test plate. Meanwhile, 2 μL of 100% DMSO was transferred to the compound-free wells (the GC and SC wells).
(§12) 98 μL of the corresponding bacterial inoculum was added to the test plate (except for the SC well).
(§13) 98 μL of 1.02×CAMHB medium was added to the SC well of the test plate.
(§14) After the system was added, the test plate was covered with a sterile lid, centrifuged at 800 rpm for 30 seconds, then shaken on a plate shaker at 400 rpm for 1 minute for mixing well, and then placed in an incubator at 35±2° C. for 20 hours.
(§15) The inoculated bacteria were gradient diluted by 10 folds with the liquid medium, from 10^−1 to 10^−3. 100 μL of the above bacterial dilution was spread evenly on a TSA petri dish, 2 replicates for each dilution. After the medium was absorbed by TSA for 10 minutes, the petri dishes were reversed and incubated in an incubator at 35±2° C. for 24 hours.
(§16) A compound management system was turned on to check whether the barcode and compound arrangement of each test plate were correct. […]

Escherichia coli = experiment: as above; format: cell-based; conditions: strain CLB30048, read-out: MIC
Protocol: as §1, §2, §3, §4, §5, §6, §7, §8, §9, §10, §11, §12, §13, §14, §15, §16

Pseudomonas aeruginosa = experiment: as above; format: cell-based
Protocol: as §1, §2, §3, §4, §5, §6, §7, §8, §9, §10, §11, §12, §13, §14, §15, §16

[2] = system: Acinetobacter baumannii, Pseudomonas aeruginosa, and Escherichia coli; experiment: In vitro antibacterial activity, summary statements over all strains of Experimental Example 1; format: cell-based; conditions: method of Experimental Example 1
Protocol: as §1, §2
The minimum inhibitory concentration (MIC) of each compound was recorded according to the guidelines of the Clinical and Laboratory Standards Institute.

| SMILES | Vd ([1]; read-out: VSS) [L/kg] | Vd ([1]; read-out: Vd) [L/kg] | AUC(0-inf) [1] [ng·h/mL] | AUC(0-t) [1] [ng·h/mL] | C0 [1] [ng/mL] | clearance [1] [mL/min/kg] | half-life [1] [min] | MIC (Acinetobacter baumannii; ATCC19606, strain ATCC 19606) [µg/mL] | MIC (Acinetobacter baumannii; strain HDBAB-YK4) [µg/mL] | MIC (Acinetobacter baumannii; strain HDBAB-YK7) [µg/mL] | MIC (Acinetobacter baumannii; strain HDBAB-YK12) [µg/mL] | MIC (Acinetobacter baumannii; strain HDBAB-YK16) [µg/mL] | MIC (Acinetobacter baumannii; strain HDBAB_OXA_7) [µg/mL] | MIC (Escherichia coli) [µg/mL] | MIC (Pseudomonas aeruginosa; strain HDBPA-YK9) [µg/mL] | MIC (Pseudomonas aeruginosa; strain HDBPA-YK15) [µg/mL] | in vitro antibacterial activity (in words) [2] |
| --- | --- | --- | --- | --- | --- | --- | --- | --- | --- | --- | --- | --- | --- | --- | --- | --- | --- |
| CC1(C)[C@H](NC(=O)/C(=N\O[C@@H](COc2ccc(-c3cn4[n+](c3)CC(OCCCN)C4)cc2)C(=O)O)c2csc(N)n2)C(=O)N1OS(=O)(=O)[O-] (stereo partly drawn) [Example 3, (3S)-3-((Z)-2-(((1S)-2-(4-(2-(3-aminopropoxy)-2,3-dihydro-1H-pyrazolo[1,2-a]pyrazol-4-ium-6-yl)phenoxy)-1-carboxyethoxy)imino)-2-(2-aminothiazol-4-yl)acetylamino)-2,2-dimethyl-4-oxoazetidin-1-yl Sulfate] | 0.26 | 0.35 | 2310 | 2300 | 8650 | 14.5 | 16.8 | 2 | 2 | 2 | 2 | 16 | 8 | 4 | 16 | > 64 | excellent antibacterial activity |
| C[n+]1cc(-c2ccc(OC[C@H](O/N=C(\C(=O)N[C@@H]3C(=O)N(OS(=O)(=O)[O-])C3(C)C)c3csc(N)n3)C(=O)O)cc2)ccc1NC(=O)[C@@H](N)CCN [Example 9] |  |  |  |  |  |  |  | 2 (≈ 2.67 µM) | 2 (≈ 2.67 µM) | 0.25 (≈ 0.333 µM) | 1 (≈ 1.33 µM) | 8 (≈ 10.7 µM) | 8 (≈ 10.7 µM) | 2 (≈ 2.67 µM) | 8 (≈ 10.7 µM) | > 64 | excellent antibacterial activity |
